Among the data in paper PMC10749220, “Development of a Rapid in vivo Assay to Evaluate the Efficacy of IRE1-specific Inhibitors of the Unfolded Protein Response Using Medaka Fish” (Cell Structure and Function, 2019) are IC50 values, retold here.

This experiment addresses T1, IRE1α (Homo sapiens, UniProt O75460).
T1 construct: gene ERN1; His-tagged cytoplasmic region of IRE1α (IRE1-C), expressed in SF9 insect cells
Kind of experiment: in vitro XBP1 mRNA cleavage assay with purified IRE1-C, urea-PAGE, SYBR Gold stain. It is filed as biochemical.

In general, IC50 refers to the concentration needed to halve the response being measured. Higher therefore signals weaker potency in that assay.

T1 sequence (O75460 465-977 limits assumed): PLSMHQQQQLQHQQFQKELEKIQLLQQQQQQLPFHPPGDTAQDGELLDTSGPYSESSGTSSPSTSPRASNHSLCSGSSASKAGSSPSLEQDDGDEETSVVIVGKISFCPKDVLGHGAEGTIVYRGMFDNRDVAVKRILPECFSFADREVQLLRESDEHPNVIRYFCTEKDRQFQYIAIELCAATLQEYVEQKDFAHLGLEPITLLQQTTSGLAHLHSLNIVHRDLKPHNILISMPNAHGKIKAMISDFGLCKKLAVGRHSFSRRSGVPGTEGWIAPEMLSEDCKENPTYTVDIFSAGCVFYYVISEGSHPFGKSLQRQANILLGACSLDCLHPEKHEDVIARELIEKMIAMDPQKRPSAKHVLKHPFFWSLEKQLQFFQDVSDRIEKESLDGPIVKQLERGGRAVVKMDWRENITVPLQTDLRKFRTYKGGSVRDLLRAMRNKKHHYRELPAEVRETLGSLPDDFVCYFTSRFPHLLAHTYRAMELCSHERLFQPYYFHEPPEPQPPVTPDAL

Regarding `Oc1ccc(/C=C/c2ccc(/C=C/c3ccc(O)cc3)c(Br)c2)cc1` [K114], half-maximal inhibition (IC50) required 30.8 µM. The value for `Cc1cc(=O)oc2c(C=O)c(O)ccc12` [4μ8C] was 0.0741 µM.
